Measurements published in paper PMC6524645 (Cell, 2018).

Legend:
P. syringae SelO = P. syringae SelO (Pseudomonas syringae group genomosp. 3, UniProt Q87VB1); test: X-ray crystal structure, […] Å; assay type: binding; details: active site, nucleotide flipped; Mg2+ and Ca2+ bound; pH 8; 20 °C
non-reducing SDS-PAGE = molecular target: the molecule itself; test: non-reducing SDS-PAGE

Sequence of P. syringae SelO (Q87VB1 whole entry): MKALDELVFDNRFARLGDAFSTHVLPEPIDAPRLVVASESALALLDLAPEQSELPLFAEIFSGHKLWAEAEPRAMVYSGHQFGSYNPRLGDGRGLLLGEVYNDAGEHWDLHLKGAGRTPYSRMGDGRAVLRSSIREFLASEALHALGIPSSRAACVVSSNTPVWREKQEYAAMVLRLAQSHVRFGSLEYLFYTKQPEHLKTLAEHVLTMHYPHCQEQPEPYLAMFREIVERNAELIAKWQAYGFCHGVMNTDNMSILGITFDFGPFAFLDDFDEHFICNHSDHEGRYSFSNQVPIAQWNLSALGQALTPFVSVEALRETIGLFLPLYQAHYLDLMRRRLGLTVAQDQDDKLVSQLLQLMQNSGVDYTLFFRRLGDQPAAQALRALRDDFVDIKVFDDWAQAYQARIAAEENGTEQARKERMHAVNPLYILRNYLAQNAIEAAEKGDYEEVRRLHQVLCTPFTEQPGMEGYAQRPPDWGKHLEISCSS

Molecule | X-ray crystal structure, 2.27 Å (P. syringae SelO) | stoichiometry N (non-reducing SDS-PAGE)
Nc1ncnc2c1ncn2[C@@H]1O[C@H](COP(=O)(O)OP(=O)(O)NP(=O)(O)O)[C@@H](O)[C@H]1O [AMP-PNP] | bound to an ATP derivative AMP-PNP | 
E. coli SelO (ydiU) C272A mutant (enzyme, UniProt P77649 1-478, looked up, intermolecular disulfide between the two copies (cysteine not named)) MTLSFVTRWRDELPETYTALSPTPLNNARLIWHNTELANTLSIPSSLFKNGAGVWGGEALLPGMSPLAQVYSGHQFGVWAGQLGDGRGILLGEQLLADGTTMDWHLKGAGLTPYSRMGDGRAVLRSTIRESLASEAMHYLGIPTTRALSIVTSDSPVYRETAEPGAMLMRVAPSHLRFGHFEHFYYRRESEKVRQLADFAIRHYWSHLADDEDKYRLWFSDVVARTASLIAQWQTVGFAHGVMNTDNMSLLGLTLDYGPFGFLDDYEPGFIANHSDHQGRYSFDNQPAVALWNLQRLAQTLSPFVAVDALNEALDSYQQVLLTHYGERMRQKLGFMTEQKEDNALLNELFSLMARERSDYTRTFRMLSLTEQHSAASPLRDEFIDRAAFDDWFARYRGRLQQDEVSDSERQQLMQSVNPALVLRNWLAQRAIEAAEKGDMTELHRLHEALRNPFSDRDDDYVSRPPDWGKRLEVSCSS |  | 2
